This is an account of results in US20090233939A1, “TREATMENT OF AMM” (priority 2002, published 2009).

The subject of assay [1] is other tyrosine kinase receptors, including c-Kit, bFGF and PDGF. The note with it: cited from earlier work.
A further assay concerns the target Flt-4 (Homo sapiens, UniProt P35916). As to conditions: cited from earlier work.
Assay [2] concerns patient with splenomegaly.
The next assay has as its target Flt-1 (Homo sapiens, UniProt P17948). The note with it: cited from earlier work.
Assay [3] deals with patient having a protuberant spleen. As to the kind of experiment: Example 2: patient with massive protuberant spleen treated with PTK787. The class given is in vivo, human. The note with it: 750 mg twice daily, after five days of therapy. The text has this:
After five days of therapy, the spleen had less than 10% of its original size.

Flt-4, sequence (P35916 25-1363, species assumed): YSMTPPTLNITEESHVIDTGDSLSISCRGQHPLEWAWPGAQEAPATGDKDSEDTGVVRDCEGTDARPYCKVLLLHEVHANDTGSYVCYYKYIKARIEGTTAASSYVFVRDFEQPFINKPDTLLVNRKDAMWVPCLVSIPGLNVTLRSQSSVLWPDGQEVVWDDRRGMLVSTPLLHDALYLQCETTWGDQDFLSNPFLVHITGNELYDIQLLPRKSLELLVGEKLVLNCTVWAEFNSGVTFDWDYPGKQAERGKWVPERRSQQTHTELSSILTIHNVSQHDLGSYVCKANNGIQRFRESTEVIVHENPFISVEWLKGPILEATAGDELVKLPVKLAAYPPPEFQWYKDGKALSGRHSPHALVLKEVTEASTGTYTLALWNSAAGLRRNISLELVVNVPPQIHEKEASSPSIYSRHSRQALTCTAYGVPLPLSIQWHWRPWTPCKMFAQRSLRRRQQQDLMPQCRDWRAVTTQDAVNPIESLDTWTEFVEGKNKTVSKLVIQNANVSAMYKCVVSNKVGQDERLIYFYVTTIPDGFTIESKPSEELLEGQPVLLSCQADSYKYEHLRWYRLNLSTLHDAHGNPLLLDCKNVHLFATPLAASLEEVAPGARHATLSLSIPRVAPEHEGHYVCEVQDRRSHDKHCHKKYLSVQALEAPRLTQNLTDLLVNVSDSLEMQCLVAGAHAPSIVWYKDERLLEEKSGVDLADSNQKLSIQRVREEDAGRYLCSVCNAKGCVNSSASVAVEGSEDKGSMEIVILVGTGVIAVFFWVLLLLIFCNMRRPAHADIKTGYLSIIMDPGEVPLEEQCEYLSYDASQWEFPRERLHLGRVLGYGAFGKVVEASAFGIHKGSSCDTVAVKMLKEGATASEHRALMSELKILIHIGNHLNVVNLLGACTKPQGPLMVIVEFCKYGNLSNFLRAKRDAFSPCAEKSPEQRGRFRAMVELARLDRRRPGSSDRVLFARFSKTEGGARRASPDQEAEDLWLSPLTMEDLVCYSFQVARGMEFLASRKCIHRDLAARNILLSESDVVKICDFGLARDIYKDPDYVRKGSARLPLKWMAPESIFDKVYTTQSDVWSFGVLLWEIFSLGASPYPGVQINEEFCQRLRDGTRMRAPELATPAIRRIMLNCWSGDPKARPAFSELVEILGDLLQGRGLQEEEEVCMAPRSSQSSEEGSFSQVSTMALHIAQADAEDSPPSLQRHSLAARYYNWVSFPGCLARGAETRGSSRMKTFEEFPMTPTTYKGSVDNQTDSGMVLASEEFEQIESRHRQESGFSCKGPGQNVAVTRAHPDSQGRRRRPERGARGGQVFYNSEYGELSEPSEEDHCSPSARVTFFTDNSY
Flt-1, sequence (P17948 27-1338, species assumed): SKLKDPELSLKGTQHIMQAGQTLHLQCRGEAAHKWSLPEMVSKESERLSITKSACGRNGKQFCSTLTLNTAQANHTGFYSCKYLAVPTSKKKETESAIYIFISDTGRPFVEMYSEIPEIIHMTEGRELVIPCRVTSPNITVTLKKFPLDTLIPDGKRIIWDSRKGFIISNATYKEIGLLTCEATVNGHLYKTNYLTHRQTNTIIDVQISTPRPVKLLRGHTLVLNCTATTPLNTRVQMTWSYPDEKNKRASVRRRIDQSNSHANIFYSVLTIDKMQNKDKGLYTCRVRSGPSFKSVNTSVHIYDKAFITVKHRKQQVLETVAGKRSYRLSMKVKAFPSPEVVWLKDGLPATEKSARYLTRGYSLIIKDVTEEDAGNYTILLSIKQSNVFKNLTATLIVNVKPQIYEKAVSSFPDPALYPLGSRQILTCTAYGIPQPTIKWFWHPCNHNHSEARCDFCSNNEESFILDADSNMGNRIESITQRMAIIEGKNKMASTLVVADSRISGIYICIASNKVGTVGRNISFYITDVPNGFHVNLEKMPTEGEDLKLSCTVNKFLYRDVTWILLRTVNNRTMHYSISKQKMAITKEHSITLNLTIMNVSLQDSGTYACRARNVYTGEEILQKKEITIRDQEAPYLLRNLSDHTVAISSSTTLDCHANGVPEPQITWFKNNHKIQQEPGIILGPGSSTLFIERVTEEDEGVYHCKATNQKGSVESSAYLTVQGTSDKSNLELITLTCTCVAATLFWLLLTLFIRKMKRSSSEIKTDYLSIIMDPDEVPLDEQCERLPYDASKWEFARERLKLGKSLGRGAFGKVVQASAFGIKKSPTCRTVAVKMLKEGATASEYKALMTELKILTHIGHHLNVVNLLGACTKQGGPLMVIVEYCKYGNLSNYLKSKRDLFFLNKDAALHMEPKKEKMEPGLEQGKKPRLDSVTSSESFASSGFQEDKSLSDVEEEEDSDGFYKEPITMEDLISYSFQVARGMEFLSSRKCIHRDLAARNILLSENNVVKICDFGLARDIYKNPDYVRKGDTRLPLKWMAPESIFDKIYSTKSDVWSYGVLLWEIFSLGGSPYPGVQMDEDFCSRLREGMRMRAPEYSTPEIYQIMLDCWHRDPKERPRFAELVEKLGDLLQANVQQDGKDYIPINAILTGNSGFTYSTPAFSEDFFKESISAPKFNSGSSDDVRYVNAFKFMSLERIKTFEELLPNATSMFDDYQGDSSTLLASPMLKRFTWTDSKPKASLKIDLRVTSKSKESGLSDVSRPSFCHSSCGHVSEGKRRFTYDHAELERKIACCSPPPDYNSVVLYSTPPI

In the case of PTK787, the “activity against other tyrosine kinase receptors” value in assay [1] is on record as “has activity”. On Flt-4, the “inhibition of Flt-4” value is recorded as “can also inhibit”. Besides, in assay [2] (750 mg twice daily, first 14 days of chemotherapy), the splenomegaly result is “decrease of splenomegaly”. In addition, the “white blood cells count” value in assay [2] (750 mg twice daily, first 14 days, drop from 19,000) was 14,000. Besides, the “spleen during interruption of therapy” value in assay [2] (during the interruption of therapy) is given as “the spleen began to increase again”. At Flt-1, the “inhibition of Flt-1” value is recorded as “can also inhibit”. In assay [3], the spleen size entry was “less than 10 % of its original size”.
